Experimental data from US8889724B2, “Tetrazole compounds for reducing uric acid” (Wellstat Therapeutics Corporation, priority 2008, dated 2014).
Where “and” joins values, the source holds several entries; their conditions need not be identical. Identical values can stand only once. One block for each compound: values may come before it.

How the values were obtained:
[1] = biological target: human URAT1 (Homo sapiens (Human), UniProt Q96S37); assay: URAT1 inhibition assay: [8-14C] urate uptake in hURAT1-HEK cells; format: cell-based; details: for inhibition at 10 µM: hURAT1-HEK cells; for IC50: 14C urate uptake in hURAT1-HEK cells
Sequence of human URAT1 (Q96S37 whole entry): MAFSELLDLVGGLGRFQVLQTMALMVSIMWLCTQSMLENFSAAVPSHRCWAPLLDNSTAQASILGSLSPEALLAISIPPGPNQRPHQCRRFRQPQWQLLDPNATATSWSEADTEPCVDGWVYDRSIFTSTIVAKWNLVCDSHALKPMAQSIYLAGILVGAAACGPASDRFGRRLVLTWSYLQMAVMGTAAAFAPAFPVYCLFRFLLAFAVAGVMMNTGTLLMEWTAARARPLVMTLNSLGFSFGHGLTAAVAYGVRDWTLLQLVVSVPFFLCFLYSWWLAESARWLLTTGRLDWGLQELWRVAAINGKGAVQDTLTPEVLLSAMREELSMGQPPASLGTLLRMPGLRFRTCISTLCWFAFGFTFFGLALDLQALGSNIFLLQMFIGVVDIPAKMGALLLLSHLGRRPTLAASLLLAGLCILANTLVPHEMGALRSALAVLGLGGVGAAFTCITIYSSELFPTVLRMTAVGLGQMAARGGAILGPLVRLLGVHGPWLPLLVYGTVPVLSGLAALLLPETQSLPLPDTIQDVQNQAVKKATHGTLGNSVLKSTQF
Experimental: URAT1 (Uric Acid Transporter 1) is expressed on the apical membrane in renal tubules. It mediates the re-uptake of uric acid from the urine into the blood.
A suitable assay involves transfection of cells (e g human embryonic kidney cells; “HEK”) with a vector encoding human URAT1, followed by determination of the ability of transfected cells to take up radiolabeled uric acid. The activity of compounds as URAT1 inhibitors is evaluated by their ability to block uric acid uptake by transfected cells.
Test Compounds and Chemicals:
Urate (50-60 mCi/mmol; American Radio Chemicals, Cat. No. ARC0513).
Subcloning of hURAT1 into the Expression Vector:
Plasmid vector pCMV6-XL5 containing hURAT1 cDNA (Cat. No. SC125624) and the expression vector pCMV6-Neo (Cat. No. pCMVNEO) were obtained from OriGene Technologies, Inc. The full-length hURAT1 cDNA was obtained from the vector pCMV6-XL5 and subcloned into the expression vector pCMV6-Neo to create the hURAT1 expression plasmid pCMV6-hURAT1. The sequences were verified by automatic DNA sequencing.
Cell Culture, Transfection of URAT1 Expressing Plasmids and the Establishment of Stably Expressing HEK Cells for hURAT1:
For transfection experiments, cells were plated on 60 mm dishes in 1 ml media per dish. […] Stable transfectants expressing hURAT1 (herein after referred as hURAT1-HEK cells) or cells having only the expression vector pCMV6-Neo (herein after referred as mock-HEK cells) were verified using reverse transcription polymerase chain reaction (RT-PCR) methods.
[8-^14C] Urate Uptake Assay:
Before the uptake assay started, the culture medium was removed and the cells were incubated for 5 min in 0.6 ml of HBSS. After that HBSS was removed, the prepared reaction solutions were added into each well and incubated for 5 min at room temperature. Then the reaction solution was removed, cells were washed twice with 0.6 ml of cold HBSS and lysed with 0.2 ml of 0.1 M NaOH for 20 min. […] Test compounds were dissolved in DMSO and the same concentration of DMSO was added into the wells of mock-HEK cells and the hURAT1-HEK cells that didn't contain test compounds. For each test compound, the uptake assay was performed 2 times and carried out in triplicate. Urate uptake of the cells for each test condition was presented as the average percent inhibition in comparison to the DMSO control. The radioactivity values obtained for the wells that contained DMSO were taken as 100% uptake of the cells. The observed concentration-percent inhibition data were fitted to a sigmoidal concentration-effect model, where: % Inhibition=(100*Conc^Slope)/(IC50^Slope+Conc^Slope)
In this example the compounds were not necessarily tested simultaneously.

[2] = Rat pilot single-dose oral pharmacokinetic study with Compound EC; format: in vivo; details: 100 mg/kg single oral gavage; for Compound EC concentration in plasma, individual rats: male Sprague-Dawley rat
Experimental: Rat Pilot Single-Dose Oral Pharmacokinetic Study with Compound EC
Determination of the Plasma Profile of Compound EC Following Single Oral Gavage Administration to Male Rats.
(§1) Test compound was suspended in 1% HPMC using a tissue homogenizer to minimize particles and maximize uniformity of the suspension and stored at 4° C. The formulations was thoroughly mixed just prior to administration. A dose of 100 mg/kg of test compounds or vehicle (1% HPMC) was administered to male Sprague-Dawley rats by single oral gavage. […] The blood samples were centrifuged within 30 minutes of collection under refrigeration (2-8° C.) for 7 minutes at 6000 rpm. Following centrifugation, the plasma were harvested into a single tube for each animal at each time point and immediately frozen at −80° C. until analyzed using LC/MS-MS. Serial plasma concentration time data was subjected to pharmacokinetic analyses using WinNonlin Standard (v2.1, Pharsight Corporation) and Microsoft EXCEL.
1. Rats received single oral gavage of Compound EC, 100 mg/kg, and plasma was collected at certain times.
(§2) 2. Plasma was stored at −80° C. until the day of analysis.
(§3) 3. Samples were thawed on 37° C. bath for 5 min and vortexed at top speed for 10 sec.
(§4) 4. Rat plasma, 0.1 mL was mixed with 0.2 mL Acetonitrile, vortexed 1 min, spun down 14000 rpm, 17000 g, at 4° C., for 25 min.
(§5) 5. Supernatants were filtered through 0.45 micron, 4 mm, PTFE membrane syringe filter (Phenomenex # AF0-3102-52), and 15 microL were injected and resolved on Luna 3 micron, 100 A pore, C8(2), 150×3 mm, reverse phase column (Phenomenex#00F-4248-YO, SN#259151-7) in 50 min linear gradient from 40% to 69% of (0.1% Formic Acid, 89.9% Acetonitrile, 10% Methanol) at 0.25 mL/min, 107 bar, 37° C. column temperature, method 406975M1, AGILENT sequence 0226-09A, Agilent 1100 LC-MS.
(§6) All samples were run in duplicate, 210 nm and 230 nm Absorbances, Negative and Positive ionization spectrograms were recorded.
Step 1. Plasma from “Vehicle” animals (pooled), 0.19 mL, was mixed with 0.01 mL 20× stock of Compound EC in Methanol to make 500 microM, 250 microM, 125 microM, concentrations of Compound EC in plasma.
For example: 190 microL plasma+10 microL of 10 mM Compound EC in methanol=0.2 mL plasma with 500 microM Compound EC.
(§7) Step 2. Samples from step 1 were vortexed for 10 sec at top speed.
(§8) Step 3. 0.4 mL of acetonitrile was added to all samples from Step 2, and all vials were vortexed at top speed for 1 min.
(§9) Step 4. All samples from step 3 were spun down 14000 rpm, 17000 g, at 4° C., for 25 min.
as §5, with “Step 5.” for “5.”, “AF0-3102-52),” for “AF0-3102-52), and”, “temperature. All samples were run in duplicate, 210 nm and 230 nm Absorbances, Negative and Positive ionization spectrograms were recorded.” for “temperature, method 406975M1, AGILENT sequence 0226-09A, Agilent 1100 LC-MS.”

[3] = Rat pilot single-dose oral pharmacokinetic study with Compound EG; format: in vivo; details: 100 mg/kg single oral gavage; for Concentration of Compound EG in rat plasma, individual rats: male Sprague-Dawley rat
Experimental: Rat Pilot Single-Dose Oral Pharmacokinetic Study with Compound EG
Determination of the Plasma Profile of Compound EG Following Single Oral Gavage Administration to Male Rats.
as §1
1. Rats received single oral gavage of Compound EG, 100 mg/kg, and plasma was collected at certain times.
as §2, §3, §4, §5, §6
Step 1. Plasma from “Vehicle” animals (pooled), 0.19 mL, was mixed with 0.01 mL 20× stock of Compound EG in Methanol to make 500 microM, 250 microM, 125 microM, . . . , concentrations of Compound EG in plasma.
For example: 190 microL plasma+10 microL of 10 mM Compound EG in methanol=0.2 mL plasma with 500 microM Compound EG.
as §7, §8, §9
as §5, with “Step 5.” for “5.”, “AF0-3102-52),” for “AF0-3102-52), and”, “temperature. All samples were run in duplicate, 210 nm and 230 nm Absorbances, Negative and Positive ionization spectrograms were recorded.” for “temperature, method 406975M1, AGILENT sequence 0226-09A, Agilent 1100 LC-MS.”

[4] = Sprague-Dawley, rat, male rats, plasma
[5] = Sprague-Dawley, rat, male rats, plasma, read-out: AUC0-24
[6] = male, Sprague-Dawley, rat, plasma, 0 HR
[7] = male, Sprague-Dawley, rat, plasma, 0.25 HR
[8] = male, Sprague-Dawley, rat, plasma, 0.5 HR
[9] = male, Sprague-Dawley, rat, plasma, 1 HR
[10] = male, Sprague-Dawley, rat, plasma, 2 HR
[11] = male, Sprague-Dawley, rat, plasma, 4 HR
[12] = male, Sprague-Dawley, rat, plasma, 6 HR
[13] = male, Sprague-Dawley, rat, plasma, 8 HR
[14] = male, Sprague-Dawley, rat, plasma, 24 HR

Structure (SMILES): COc1ccc(Cc2nnn[nH]2)cc1OCc1c(C)cccc1C [ED, 5-(3-(2,6-Dimethylbenzyloxy)-4-methoxybenzyl)-1H-tetrazole]
inhibition at 10 µM [1]: 96% | IC50 [1]: 250 nM

Structure (SMILES): Cc1cccc(C)c1COc1cccc(CCc2nnn[nH]2)c1 [EF, 5-(3-(2,6-Dimethylbenzyloxy)phenethyl)-1H-tetrazole]
inhibition at 10 µM [1]: 92% | IC50 [1]: 740 nM

Structure (SMILES): Cc1cccc(C)c1COc1cccc(Cc2nnn[nH]2)c1C [EH, 5-(3-(2,6-Dimethylbenzyloxy)-2-methylbenzyl)-1H-tetrazole]
inhibition at 10 µM [1]: 80%

Structure (SMILES): COc1c(Cc2nnn[nH]2)cccc1OCc1c(C)cccc1C [EI, 5-(3-(2,6-Dimethylbenzyloxy)-2-methoxybenzyl)-1H-tetrazole]
inhibition at 10 µM [1]: 44%

The next lines start with the values.

inhibition at 10 µM [1]: 56.6%
Structure (SMILES): Fc1cccc(F)c1COc1ccc(Cc2nnn[nH]2)cc1 [BD, 5-(4-(2,6-Difluorobenzyloxy)benzyl)-1H-tetrazole]

inhibition at 10 µM [1]: 95.2% | IC50 [1]: 240 nM | Cmax [2, 4]: 61000 ng/mL | AUC(0-t) [2, 5]: 672 µg·h/mL | Compound EC concentration in plasma, individual rats ([2]; 0.25 HR): 114 µM and 67 µM | Compound EC concentration in plasma, individual rats ([2]; 0.5 HR): 45 µM and 25 µM | Compound EC concentration in plasma, individual rats ([2]; 1 HR): 17 µM and 222 µM | Compound EC concentration in plasma, individual rats ([2]; 2 HR): 384 µM and 29 µM | Compound EC concentration in plasma, individual rats ([2]; 4 HR): 35 µM and 11 µM | Compound EC concentration in plasma, individual rats ([2]; 6 HR): 85 µM and 73 µM and 62 µM | Compound EC concentration in plasma, individual rats ([2]; 8 HR): 107 µM and 262 µM | Compound EC concentration in plasma, individual rats ([2]; 24 HR): 0 µM | concentration at 0 h [2, 6]: 0 ng/mL | concentration at 0.25 h [2, 7]: 27000 ng/mL | concentration at 0.5 h [2, 8]: 10000 ng/mL | concentration at 1 h [2, 9]: 35000 ng/mL | concentration at 2 h [2, 10]: 61000 ng/mL | concentration at 4 h [2, 11]: 7000 ng/mL | concentration at 6 h [2, 12]: 22000 ng/mL | concentration at 8 h [2, 13]: 54000 ng/mL | concentration at 24 h [2, 14]: 0 ng/mL | Detection in plasma (in words) ([2]; rat, LC-MS): readily detected
Structure (SMILES): Cc1cccc(C)c1COc1cccc(Cc2nnn[nH]2)c1 [Compound EC, 5-(3-(2,6-Dimethylbenzyloxy)benzyl)-1H-tetrazole]

Cmax [3, 4]: 22000 ng/mL | AUC(0-t) [3, 5]: 94.9 µg·h/mL | Concentration of Compound EG in rat plasma, individual rats ([3]; 0.25 HR): 19 µM and 27 µM | Concentration of Compound EG in rat plasma, individual rats ([3]; 0.5 HR): 29 µM and 18 µM | Concentration of Compound EG in rat plasma, individual rats ([3]; 1 HR): 101 µM and 42 µM | Concentration of Compound EG in rat plasma, individual rats ([3]; 2 HR): 25 µM and 50 µM | Concentration of Compound EG in rat plasma, individual rats ([3]; 4 HR): 14 µM and 23 µM | Concentration of Compound EG in rat plasma, individual rats ([3]; 6 HR): 10 µM and 17 µM | Concentration of Compound EG in rat plasma, individual rats ([3]; 8 HR): 5 µM and 19 µM | Concentration of Compound EG in rat plasma, individual rats ([3]; 24 HR): 2 µM and 0 µM | concentration at 0 h [3, 6]: 0 ng/mL | concentration at 0.25 h [3, 7]: 7000 ng/mL | concentration at 0.5 h [3, 8]: 7000 ng/mL | concentration at 1 h [3, 9]: 22000 ng/mL | concentration at 2 h [3, 10]: 12000 ng/mL | concentration at 4 h [3, 11]: 6000 ng/mL | concentration at 6 h [3, 12]: 4000 ng/mL | concentration at 8 h [3, 13]: 4000 ng/mL | concentration at 24 h [3, 14]: 0 ng/mL | Detection in plasma (in words) ([3]; rat, LC-MS): readily detected | inhibition at 10 µM [1]: 95.6% | IC50 [1]: 130 nM
Structure (SMILES): Cc1ccc(Cc2nnn[nH]2)cc1OCc1c(C)cccc1C [Compound EG, 5-(3-(2,6-Dimethylbenzyloxy)-4-methylbenzyl)-1H-tetrazole]
